Like-named read-outs stand apart in the source and are kept apart here. Non-standard residues stand in square brackets, D forms with d. Residues, ends and D or L forms follow the SMILES beside them. No end group written: not given here.
Legend:
MRSA = assay type: cell-based, methicillin-resistant Staphylococcus aureus (MRSA-43300)
Description: (§1) Pseudomonas aeruginosa (Psae-27853), Staphylococcus aureus (ATCC-29213), and methicillin-resistant Staphylococcus aureus (MRSA-43300) were used. Bacteria were cultivated in tryptic soy broth (TSB) (Merck, Darmstadt, Germany) at 37 °C and 225rpm or on TSB–agarose plates at 37 °C.
(§2) Bacteria were grown to an OD620 of 0.5, harvested by centrifugation, and washed with tris-glucose buffer (TG buffer: 10 mM tris, 5 mM glucose; pH = 7.4) (P. aeruginosa and S. aureus) or phosphate–glucose buffer (PG buffer: 10 mM K2HPO4, 5 mM glucose; pH = 7.4) (MRSA). Bacteria were adjusted to 2 × 10^6 colony forming units (CFU)/mL and were incubated in 1:2 dilutions for 2 h at 37 °C with CLEC3A-derived and modified CLEC3A-derived peptides in TG buffer or PG buffer. The known AMP LL-37 was used as a positive control, while the CLEC3A-derived peptides ST-16 (Ctrl 1) and DK-29 (Ctrl 2) and untreated bacteria were used as negative controls. The bacteria were then plated onto TSB–agarose plates in previously determined dilutions and cultured overnight at 37 °C. The number of grown colonies was determined with the ImageJ cell counter plugin and is presented as a percentage of the number of grown colonies from the untreated control. The minimal inhibitory concentration (MIC50) was defined as the concentration of antimicrobial peptide where only 50% of bacteria survived. Used peptide concentrations are provided in Supplementary Table S1.
(§3) Statistical analysis of results was performed with Prism 9.3.1 (471) (GraphPad, San Diego, CA, USA). All tables and graphs show calculated averages and standard deviations obtained from three individual experiments. Bar charts of the MIC50 include numerical values with confidence intervals (95%) as the legend. Statistical significance was determined with a paired ANOVA test followed by a Dunnett test and multiple comparisons, comparing each peptide with the respective parent peptide HT-16, HT-47, or WRK-30 as indicated in the figure captions.

[1] = tested on: NIH3T3 cells (murine fibroblasts); experiment: Cytotoxicity assay (MTS); assay type: cell-based
Description: NIH3T3 cells (murine fibroblasts), obtained from Prof. Dr. Wielckens, were seeded and precultured overnight. For 24 h incubation with peptides, a density of 1 × 10^4 cells/well and for 96 h incubation with peptides a density of 5 × 10^3 cells/well was used. After preculturing, the culture medium was replaced and cells were incubated with a peptide-containing medium for 24 h and 96 h. Afterward, the peptide-containing medium was removed and cells were washed with PBS before adding CellTiter 96® AQueous One Solution (Promega, Madison, WI, USA) containing 3-(4,5-dimethylthiazol-2-yl)-5-(3-carboxymethoxyphenyl)-2-(4-sulfophenyl)-2H-tetrazolium (MTS) to the culture medium. Cells incubated with peptides for 24 h were incubated with MTS medium for 1 h at 37 °C, and absorbance was measured at 490 nm. Cells incubated with peptides for 96 h were incubated with MTS medium for 2 h at 37 °C before measuring the absorbance. Samples were measured in triplicates, and the cell viability of three individual experiments is presented as a percentage of the measured OD from the untreated control. As further controls, vancomycin (final concentration 7.35 µg/mL), colistin (final concentration 147 µg/mL), and 1% TritonX in culture medium were used. Used peptide concentrations are provided in Supplementary Table S2.

P. aeruginosa = assay type: cell-based, Pseudomonas aeruginosa (Psae-27853); conditions: 2 h, pH 7.4
Description: as §1, §2, §3

S. aureus = assay type: cell-based, Staphylococcus aureus (ATCC-29213); conditions: 2 h, pH 7.4
Description: as §1, §2, §3

[2] = Biostability assay in murine serum; assay type: in vitro ADME, murine (C57BL6/N); conditions: 30 µM peptide, room temperature; for Time for which the peptide was detectable in murine serum: pooled murine serum (C57BL6/N), samples 5 min, 10 min, n = 3
Description: The peptides (HT-47, WRK-30, and dWRK-30) were mixed with pooled murine serum, obtained from C57BL6/N wildtype mice via cardiac puncture immediately after death by cervical dislocation (the procedure was approved by the local government authority LANUV under permit no. UniKöln_Anzeige§4.22.001), to a final concentration of 30 µM. In parallel, a control with water and pooled murine serum was prepared. Both mixtures were incubated at room temperature, and samples were taken at the time points indicated in Supplementary Table S3. The samples were immediately added to a Novex Tricine SDS Sample Buffer containing a NuPage Sample Reducing Agent and incubated at 85 °C for 2 min. Boiled samples were stored at 4 °C. After the collection of all time points, samples were separated into 10–20% Tricine Gels. Gels with HT-47 and WRK-30 were subsequently transferred onto PVDF membranes (0.2 µm pore size) and immunoblot analysis with 1:200 dilutions of a custom-ordered and affinity-purified rabbit anti-WRK-30 (Eurogentec, Seraing, Belgium) antibody was performed. Gels with dWRK-30 were stained with Coomassie brilliant blue.

[3] = tested on: gram-positive and gram-negative bacteria; conditions: cited from earlier work
Description: We assessed the antimicrobial activity of the modified CLEC3A-derived peptides using an antimicrobial activity assay and determined their MIC50 (Figure 2). We used the well-investigated AMP LL-37 as a positive control. As negative controls, we used ST-16 (Ex1z), which corresponds to HT-16 with an abolished positive charge, and DK-29 (Ex2), which is solely the amphipathic α-helix of HT-47 without the positive charge of the N-terminus. […] First, we investigated the antimicrobial activity of the peptides modified from HT-16: RK-9 and ...

[4] = tested on: primary human cartilage cells; conditions: cited from earlier work
[5] = HT-47: immunoblot (anti-WRK-30), 6 h, 8 h, dWRK-30: SDS-PAGE, Coomassie, 24 h, 96 h

Molecule | P. aeruginosa MIC50 (P. aeruginosa) | S. aureus MIC50 (S. aureus) | MRSA MIC50 (MRSA; 2 h, pH 7.4) | other results
CC[C@H](C)[C@H](NC(=O)[C@H](CCCCN)NC(=O)[C@H](CCC(=O)O)NC(=O)[C@H](CCCCN)NC(=O)[C@H](CO)NC(=O)[C@H](CCCCN)NC(=O)[C@H](CCCNC(=N)N)NC(=O)[C@H](Cc1ccccc1)NC(=O)[C@H](Cc1ccccc1)NC(=O)[C@H](CC(=O)O)NC(=O)CNC(=O)[C@H](CC(C)C)NC(=O)[C@@H](N)CC(C)C)C(=O)NCC(=O)N[C@@H](CCCCN)C(=O)N[C@@H](CCC(=O)O)C(=O)N[C@@H](Cc1ccccc1)C(=O)N[C@@H](CCCCN)C(=O)N[C@@H](CCCNC(=N)N)C(=O)N[C@H](C(=O)N[C@H](C(=O)N[C@@H](CCC(N)=O)C(=O)N[C@@H](CCCNC(=N)N)C(=O)N[C@H](C(=O)N[C@@H](CCCCN)C(=O)N[C@@H](CC(=O)O)C(=O)N[C@@H](Cc1ccccc1)C(=O)N[C@@H](CC(C)C)C(=O)N[C@@H](CCCNC(=N)N)C(=O)N[C@@H](CC(N)=O)C(=O)N[C@@H](CC(C)C)C(=O)N[C@H](C(=O)N1CCC[C@H]1C(=O)N[C@@H](CCCNC(=N)N)C(=O)N[C@H](C(=O)N[C@@H](CCC(=O)O)C(=O)N[C@@H](CO)C(=O)O)[C@@H](C)O)C(C)C)[C@@H](C)CC)C(C)C)[C@@H](C)CC [LL-37, reference compound] | – | – | – | MRSA MIC50 (MRSA; Figure 2c series, 2 × 10^6 CFU/mL, 2 h at 37 °C in PG buffer pH 7.4, plating and colony count, n = 3, ± confidence interval (95%), na: not applicable): 2.40 ± 0.42 µM; MRSA MIC50 (MRSA; Figure 3c series, 2 × 10^6 CFU/mL, 2 h at 37 °C in PG buffer pH 7.4, n = 3, ± confidence interval (95%), na: not applicable): 2.63 ± 1.21 µM; MRSA MIC50 (MRSA; Figure 8c series, 2 × 10^6 CFU/mL, 2 h at 37 °C in PG buffer pH 7.4, n = 3, ± confidence interval (95%)): 0.52 ± 0.64 µM; Cytotoxicity to NIH3T3 cells, 24 h (in words) ([1]; Figure 5A, 0.3, 3 and 30 µM peptide, 24 h, MTS, absorbance 490 nm, % of untreated control, n = 3): cytotoxic effects
CC[C@@H](C)[C@@H](NC(=O)[C@@H](CCC(=O)O)NC(=O)[C@@H](CCCCN)NC(=O)[C@@H](CC(C)C)NC(=O)[C@@H](C)NC(=O)[C@@H](CC(N)=O)NC(=O)[C@H](NC(=O)[C@@H](CCC(=O)O)NC(=O)[C@H](NC(=O)[C@@H](Cc1c[nH]c2ccccc12)NC(=O)[C@@H](CC(C)C)NC(=O)[C@@H](CCCCN)NC(=O)[C@@H](CCC(=O)O)NC(=O)[C@H](NC(=O)[C@@H](CCC(N)=O)NC(=O)[C@H](NC(=O)[C@@H](CCCCN)NC(=O)[C@@H](CC(C)C)NC(=O)CNC(=O)CNC(=O)CNC(=O)[C@@H](CCCNC(=N)N)NC(=O)[C@H](NC(=O)[C@@H](CCCNC(=N)N)NC(=O)[C@@H](CCCNC(=N)N)NC(=O)[C@@H](CCCCN)NC(=O)[C@@H](CO)NC(=O)[C@@H](Cc1c[nH]cn1)NC(=O)[C@@H](CCCCN)NC(=O)[C@@H](CCCNC(=N)N)NC(=O)[C@H](N)Cc1c[nH]c2ccccc12)C(C)C)[C@H](C)O)[C@H](C)CC)[C@H](C)O)C(C)C)C(=O)O [dWRK-30] (H-[dW][dR][dK][dH][dS][dK][dR][dR][dV][dR]GGG[dL][dK][dT][dQ][dI][dE][dK][dL][dW][dT][dE][dV][dN][dA][dL][dK][dE][dI]-OH) | 1.46 ± 1.55 µM | 0.66 ± 0.36 µM | 2.34 ± 0.39 µM | Time for which the peptide was detectable in murine serum [2, 5]: up to 96 h
DKDGDLKTQIEKLWTEVNALKEIQALQTVCL [DK-29, negative control, solely the amphipathic α-helix of HT-47 without the positive charge of the N-terminus] | – | – | – | Antimicrobial activity of negative control peptides (in words) [3]: Neither ST-16 nor DK-29 display any antimicrobial activity
HTSRLKARKHSKRRVR [HT-16] | 0.51 ± 0.11 µM | 0.24 ± 0.13 µM | 9.25 ± 6.25 µM | Cytotoxicity towards murine fibroblasts, overall statement [1]: does not show any signs of cytotoxicity; Toxic effects to primary human cartilage cells [4]: no toxic effects
HTSRLKARKHSKRRVRDKDGDLKTQIEKLWTEVNALKEIQALQTVCL [HT-47] | – | – | 9.88 ± 2.43 µM | Time for which the peptide was detectable in murine serum [2, 5]: up to 8 h; Detection in murine serum after 24 h (in words) ([2]; pooled murine serum, immunoblot, 24 h (not shown)): disappeared; Toxic effects to primary human cartilage cells [4]: no toxic effects
RKHSKRRVR [RK-9] | 4.17 ± 0.69 µM | 1.62 ± 2.67 µM | – | –
RKHSKRRVRDKDGDLKTQIEKLWTEVNALKEI [RK-31] | – | 4.85 ± 3.10 µM | – | –
RKHSKRRVRGGGLKTQIEKLWTEVNALKEI [RK-30] | 2.64 ± 1.79 µM | 0.63 ± 0.68 µM | 4.51 ± 3.81 µM | –
STSQLQAQQSSQQQVQ [ST-16, negative control, corresponds to HT-16 with abolished positive charge] | – | – | – | Antimicrobial activity of negative control peptides (in words) [3]: Neither ST-16 nor DK-29 display any antimicrobial activity
WRKHSKRRVR [WRK-9] | 0.96 ± 0.46 µM | 0.56 ± 0.72 µM | – | –
WRKHSKRRVRDKDGDLKTQIEKLWTEVNALKEI [WRK-31] | – | 1.03 ± 0.30 µM | – | –
WRKHSKRRVRGGGLKTQIEKLWTEVNALKEI [WRK-30] | – | – | – | Time for which the peptide was detectable in murine serum ([2]; immunoblot (anti-WRK-30), 30 min, 1 h): up to 30 min

Reference: PMC10604565, “Modified CLEC3A-Derived Antimicrobial Peptides Lead to Enhanced Antimicrobial Activity against Drug-Resistant Bacteria” (Antibiotics, 2023)
